Patent US5484717A, “Antibiotic 31F508α1, 31F508α2, 31F508β1, 31F508β2” (American Cyanamid Company, priority 1995, dated 1996)
Read-outs that look alike come from different tables or passages of the source.

Experiments:
B. cereus (Bacto) = experiment: In vitro antibacterial activity, agar dilution MIC; format: cell-based; details: Bacillus cereus, 18 h, read-out: Minimum Inhibitory Concentration
Procedure: (§1) The in vitro antibacterial activity of 31F508α1 and α2 is determined against a spectrum of gram-positive and gram-negative bacteria by a standard agar dilution method. Mueller-Hinton agar with and without 5% sheep blood and two-fold decreasing concentrations of either 31F508α1 or α2 are poured into petri dishes. The agar surfaces are inoculated with 1 to 5×10^4 colony forming units of bacteria by means of the Steers replicating device. The lowest concentration of antibiotic that inhibits growth of a bacterial strain after 18 hours incubation is recorded as the minimal inhibitory concentration for that strain. The results are given in Table V with sheeps blood added to the agar.

CNS (4615) = experiment: In vitro antibacterial activity, agar dilution MIC; format: cell-based; details: 18 h
Procedure: as §1

CNS (ID-3120) = experiment: In vitro antibacterial activity, agar dilution MIC; format: cell-based; details: 18 h
Procedure: as §1

CNS (ID-3276) = experiment: In vitro antibacterial activity, agar dilution MIC; format: cell-based; details: 18 h, read-out: Minimum Inhibitory Concentration, CNS (ID-3276), without sheep blood
Procedure: as §1

CNS (ID-3941) = experiment: In vitro antibacterial activity, agar dilution MIC; format: cell-based; details: 18 h
Procedure: as §1

E. Avium (ID-3953) = experiment: In vitro antibacterial activity, agar dilution MIC; format: cell-based; details: Enterococcus avium, 18 h, read-out: Minimum Inhibitory Concentration
Procedure: as §1

E. coli (ATCC 25922) = experiment: In vitro antibacterial activity, agar dilution MIC; format: cell-based; details: 18 hours
Procedure: as §1

E. coli (J2175) = experiment: In vitro antibacterial activity, agar dilution MIC; format: cell-based; details: Escherichia coli, 18 h, read-out: Minimum Inhibitory Concentration
Procedure: as §1

E. coli (J2445) = experiment: In vitro antibacterial activity, agar dilution MIC; format: cell-based; details: Escherichia coli, 18 h, read-out: Minimum Inhibitory Concentration
Procedure: as §1

E. faecalis (12201) = experiment: In vitro antibacterial activity, agar dilution MIC; format: cell-based; details: Enterococcus faecalis, 18 h, read-out: Minimum Inhibitory Concentration
Procedure: as §1

E. faecalis (ATCC 29212) = experiment: In vitro antibacterial activity, agar dilution MIC; format: cell-based; details: Enterococcus faecalis, ATCC29212, 18 h, read-out: Minimum Inhibitory Concentration
Procedure: as §1

E. faecalis (ID-1829) = experiment: In vitro antibacterial activity, agar dilution MIC; format: cell-based; details: Enterococcus faecalis, 18 h, read-out: Minimum Inhibitory Concentration
Procedure: as §1

E. faecalis (ID-2131) = experiment: In vitro antibacterial activity, agar dilution MIC; format: cell-based; details: Enterococcus faecalis, 18 h, read-out: Minimum Inhibitory Concentration
Procedure: as §1

E. faecalis (ID-4168) = experiment: In vitro antibacterial activity, agar dilution MIC; format: cell-based; details: Enterococcus faecalis, 18 h, read-out: Minimum Inhibitory Concentration
Procedure: as §1

E. faecium (12202) = experiment: In vitro antibacterial activity, agar dilution MIC; format: cell-based; details: Enterococcus faecium, 18 h, read-out: Minimum Inhibitory Concentration
Procedure: as §1

E. faecium (ID-3301) = experiment: In vitro antibacterial activity, agar dilution MIC; format: cell-based; details: Enterococcus faecium, 18 h, read-out: Minimum Inhibitory Concentration
Procedure: as §1

E. faecium (ID-4133) = experiment: In vitro antibacterial activity, agar dilution MIC; format: cell-based; details: 18 hours
Procedure: as §1

M. morganii (VGH 84-11) = experiment: In vitro antibacterial activity, agar dilution MIC; format: cell-based; details: Morganella morganii, 18 h, read-out: Minimum Inhibitory Concentration
Procedure: as §1

[1] = system: P. aeruginosa (ATCC 27853); experiment: In vitro antibacterial activity, agar dilution MIC; format: cell-based; details: 18 hours
Procedure: as §1

S. Pyogenes (ID-3187) = experiment: In vitro antibacterial activity, agar dilution MIC; format: cell-based; details: Streptococcus pyogenes, 18 h, read-out: Minimum Inhibitory Concentration
Procedure: as §1

S. agalactiae (ID-4079) = experiment: In vitro antibacterial activity, agar dilution MIC; format: cell-based; details: Streptococcus agalactiae
Procedure: as §1

S. lutea (ATCC 9341) = experiment: In vitro antibacterial activity, agar dilution MIC; format: cell-based; details: 18 hours
Procedure: as §1

[2] = system: Staphylococcus aureus (ATCC 29213); experiment: In vitro antibacterial activity, agar dilution MIC; format: cell-based; details: ATCC29213, 18 h, read-out: Minimum Inhibitory Concentration
Procedure: as §1

[3] = system: Staphylococcus aureus (ID-2371); experiment: In vitro antibacterial activity, agar dilution MIC; format: cell-based; details: 18 h, read-out: Minimum Inhibitory Concentration
Procedure: as §1

[4] = system: Staphylococcus aureus (ID-2727); experiment: In vitro antibacterial activity, agar dilution MIC; format: cell-based; details: 18 h, read-out: Minimum Inhibitory Concentration
Procedure: as §1

[5] = system: Staphylococcus aureus (ID-3105); experiment: In vitro antibacterial activity, agar dilution MIC; format: cell-based; details: 18 h, read-out: Minimum Inhibitory Concentration
Procedure: as §1

[6] = system: Staphylococcus aureus (ID-4379); experiment: In vitro antibacterial activity, agar dilution MIC; format: cell-based; details: 18 h, read-out: Minimum Inhibitory Concentration
Procedure: as §1

[7] = system: Staphylococcus aureus (MEMC-89-4); experiment: In vitro antibacterial activity, agar dilution MIC; format: cell-based; details: 18 h, read-out: Minimum Inhibitory Concentration
Procedure: as §1

[8] = system: Staphylococcus aureus (SMITH); experiment: In vitro antibacterial activity, agar dilution MIC; format: cell-based; details: 18 h, read-out: Minimum Inhibitory Concentration
Procedure: as §1

[9] = system: Staphylococcus haemolyticus (ID-4061); experiment: In vitro antibacterial activity, agar dilution MIC; format: cell-based; details: 18 h, read-out: Minimum Inhibitory Concentration
Procedure: as §1

[10] = system: Streptococcus pneumoniae (ID-4444); experiment: In vitro antibacterial activity, agar dilution MIC; format: cell-based; details: 18 h, read-out: Minimum Inhibitory Concentration
Procedure: as §1

[11] = Stability (conversion in neutral or basic solution; decomposition on drying); format: physicochemical; details: listed as α1
Procedure: The crude product is then separated into the α1, α2, β1 and β2 components and further purified by high performance liquid chromatography on a reverse-phase column equilibrated with 0.1% trifluoroacetic acid in water followed by slution with an acetonitrile gradient to 10%. Active fractions are pooled and freeze dried. Freeze dried fractions are dissolved in 0.01M hydrochloric acid, applied to a reverse phase column and eluted with an acetonitrile gradient to 10% resolves the two components α1 and α2. […] Beta is the quinone form of α1 or α2 having lost hydrogens from the oxygens connected to carbon10 and 13.
The freeze dried material is suspended in methanol and the insolubles removed by filtration. The soluble material is concentrated to dryness and the concentrate dissolved in 1% trifluoroacetic acid in water. Insolubles are removed by centrifugation. The soluble material is loaded onto a preparative reverse phase C18 column equilibrated with 0.1% trifluoroacetic acid in water. The column is eluted with an acetonitrile gradient to 10%. Active fractions containing the alpha component are pooled and freeze dried. Active fractions containing the beta component are adjusted to pH 8 with solid ammonium bicarbonate and extracted with methylene chloride. The beta component is stored in methylene chloride as drying leads to rapid decomposition. […]

COc1c(C)c(O)c2c(c1O)C1COC3C4CC5C(N4)C(C2N2CCOC52)N13 (stereo not drawn) [31F508α1]
0.5 µg/mL: MIC (B. cereus (Bacto); without sheep blood) | MIC (E. faecalis (ID-1829); with 5% sheep blood)
0.25 µg/mL: MIC (E. Avium (ID-3953); with 5% sheep blood) | MIC (E. faecalis (ID-2131); with 5% sheep blood) | MIC (E. faecium (12202); with 5% sheep blood)
0.06 µg/mL: MIC (CNS (ID-3941); read-out: Minimum Inhibitory Concentration, CNS (ID-3941), with 5% sheep blood) | MIC (E. Avium (ID-3953); without sheep blood) | MIC (E. coli (J2445); without sheep blood) | MIC (E. faecalis (12201); with 5% sheep blood) | MIC (E. faecalis (ATCC 29212); without sheep blood) | MIC (E. faecalis (ID-4168); without sheep blood) | MIC (E. faecium (ID-3301); without sheep blood) | MIC ([2]; Staphylococcus aureus (ATCC 29213-), without sheep blood) | MIC ([3]; with 5% sheep blood) | MIC ([5]; with 5% sheep blood) | MIC ([7]; with 5% sheep blood)
converts to the beta form: Conversion to the beta (quinone) form [11]
0.002 µg/mL: MIC (E. faecium (ID-4133); Enterococcus faecium, without sheep blood, read-out: Minimum Inhibitory Concentration) | Minimum Inhibitory Concentration (E. faecium (ID-4133); with 5% sheep blood) | MIC (S. Pyogenes (ID-3187); without sheep blood) | MIC (S. lutea (ATCC 9341); Micrococcus luteus, ATCC9341, without sheep blood, read-out: Minimum Inhibitory Concentration) | Minimum Inhibitory Concentration (S. lutea (ATCC 9341); with 5% sheep blood) | MIC ([10]; without sheep blood)
1 µg/mL: MIC (B. cereus (Bacto); with 5% sheep blood) | MIC (E. coli (ATCC 25922); Escherichia coli, ATCC25922, without sheep blood, read-out: Minimum Inhibitory Concentration) | MIC (E. coli (J2175); without sheep blood) | MIC (M. morganii (VGH 84-11); without sheep blood)
0.008 µg/mL: MIC (CNS (ID-3276)) | MIC ([4]; without sheep blood) | MIC ([8]; with 5% sheep blood) | MIC ([9]; without sheep blood) | MIC ([10]; with 5% sheep blood)
0.03 µg/mL: MIC (CNS (4615); read-out: Minimum Inhibitory Concentration, CNS (4615), with 5% sheep blood) | MIC (CNS (ID-3120); read-out: Minimum Inhibitory Concentration, CNS (ID-3120), with 5% sheep blood) | MIC (CNS (ID-3941); read-out: Minimum Inhibitory Concentration, CNS (ID-3941), without sheep blood) | MIC (E. faecalis (12201); without sheep blood) | MIC (E. faecium (12202); without sheep blood) | MIC ([3]; without sheep blood) | MIC ([5]; without sheep blood) | MIC ([6]; without sheep blood) | MIC ([7]; without sheep blood)
2.000 µg/mL: Minimum Inhibitory Concentration ([1]; with 5% sheep blood)
1.000 µg/mL: Minimum Inhibitory Concentration (E. coli (ATCC 25922); with 5% sheep blood)
0.12 µg/mL: MIC (E. coli (J2445); with 5% sheep blood) | MIC (E. faecalis (ATCC 29212); with 5% sheep blood) | MIC (E. faecalis (ID-1829); without sheep blood) | MIC (E. faecalis (ID-2131); without sheep blood) | MIC (E. faecalis (ID-4168); with 5% sheep blood) | MIC (E. faecium (ID-3301); with 5% sheep blood) | MIC ([2]; Staphylococcus aureus (ATCC 29213), with 5% sheep blood) | MIC ([6]; with 5% sheep blood)
0.004 µg/mL: MIC (S. Pyogenes (ID-3187); with 5% sheep blood) | MIC (S. agalactiae (ID-4079); 18 h, read-out: Minimum Inhibitory Concentration, S. acralactiae (ID-4079), without sheep blood) | MIC ([8]; without sheep blood)
0.015 µg/mL: MIC (CNS (4615); read-out: Minimum Inhibitory Concentration, CNS (4615), without sheep blood) | MIC (CNS (ID-3120); read-out: Minimum Inhibitory Concentration, CNS (ID-3120), without sheep blood) | MIC (S. agalactiae (ID-4079); S. agalactiae (ID-4079), with 5% sheep blood, 18 hours, read-out: Minimum Inhibitory Concentration) | MIC ([4]; with 5% sheep blood) | MIC ([9]; with 5% sheep blood)
2 µg/mL: MIC (E. coli (J2175); with 5% sheep blood) | MIC (M. morganii (VGH 84-11); with 5% sheep blood) | MIC ([1]; Pseudomonas aeruginosa, ATCC27853, without sheep blood, read-out: Minimum Inhibitory Concentration)
